Target: Btk (Homo sapiens (Human), UniProt Q06187)
Assay: standard biochemical Btk Kinase Assay (Example 901)
From the text: Determination of IC50 values can be accomplished using conventional techniques known in the art. In general, an IC50 can be determined by measuring the activity of a given enzyme in the presence of a range of concentrations of the inhibitor under study. The experimentally obtained values of enzyme activity then are plotted against the inhibitor concentrations used. […] Analogously, other inhibitory concentrations can be defined through appropriate determinations of activity.

Chain of Btk (Q06187 whole entry): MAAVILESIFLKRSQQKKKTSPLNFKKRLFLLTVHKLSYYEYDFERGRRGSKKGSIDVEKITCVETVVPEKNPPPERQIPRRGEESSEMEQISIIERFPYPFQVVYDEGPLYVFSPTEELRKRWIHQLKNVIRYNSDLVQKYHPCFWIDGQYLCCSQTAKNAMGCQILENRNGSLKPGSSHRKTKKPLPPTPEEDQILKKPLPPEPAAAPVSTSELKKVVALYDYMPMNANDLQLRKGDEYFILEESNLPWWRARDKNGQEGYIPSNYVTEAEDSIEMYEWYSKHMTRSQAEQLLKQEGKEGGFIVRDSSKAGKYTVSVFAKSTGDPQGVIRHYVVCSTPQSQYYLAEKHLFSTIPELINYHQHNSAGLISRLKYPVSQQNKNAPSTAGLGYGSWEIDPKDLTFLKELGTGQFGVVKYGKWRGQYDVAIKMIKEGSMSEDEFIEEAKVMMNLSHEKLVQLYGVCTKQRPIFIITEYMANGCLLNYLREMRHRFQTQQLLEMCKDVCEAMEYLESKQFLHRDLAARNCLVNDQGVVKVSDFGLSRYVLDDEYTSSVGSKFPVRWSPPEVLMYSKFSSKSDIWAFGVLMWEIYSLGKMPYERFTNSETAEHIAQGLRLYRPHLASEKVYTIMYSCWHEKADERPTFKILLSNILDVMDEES

IC50 (Table 2) [nM]	IC50 (Table 1) [nM]	SMILES
5	–	Cn1cc(-c2cc(F)cc(N3CCn4c(cc5c4CCCC5)C3=O)c2CO)cc(Nc2cc3n(n2)CCOC3)c1=O [Example 149, 2-(3-(5-(6,7-Dihydro-4H-pyrazolo[5,1-c][1,4]oxazin-2-ylamino)-1-methyl-6-oxo-1,6-dihydropyridin-3-yl)-5-fluoro-2-(hydroxymethyl)phenyl)-3,4,6,7,8,9-hexahydropyrazino[1,2-a]indol-1(2H)-one]
16	–	CN1CCC(c2ccc(Nc3nc(-c4cc(F)cc(N5CCn6c(cc7c6CC(C)(C)C7)C5=O)c4CO)cn(C)c3=O)cc2)CC1 [Example 294, 10-[5-Fluoro-2-(hydroxymethyl)-3-(4-methyl-6-{[4-(1-methylpiperidin-4-yl)phenyl]amino}-5-oxo-4,5-dihydropyrazin-2-yl)phenyl]-4,4-dimethyl-1,10-diazatricyclo[6.4.0.0^2,6]dodeca-2(6),7-dien-9-one]
16.5	–	Cn1cc(-c2cccc(N3CCc4c(cc5n4CCCC5)C3=O)c2CO)cc(Nc2cc3n(n2)CCOC3)c1=O [Example 309, 5-[2-(Hydroxymethyl)-3-{1-oxo-1H,2H,3H,4H,6H,7H,8H,9H-pyrido[3,4-b]indolizin-2-yl}phenyl]-1-methyl-3-{4H,6H,7H-pyrazolo[3,2-c][1,4]oxazin-2-ylamino}-1,2-dihydropyridin-2-one]
–	10.1	Cn1cc(-c2cccc(N3CCn4c(cc5c4CCCC5)C3=O)c2CO)cc(Nc2ccc(N3CCOCC3)cn2)c1=O [Example 107, 2-(2-(hydroxymethyl)-3-(1-methyl-5-(5-morpholinopyridin-2-ylamino)-6-oxo-1,6-dihydropyridin-3-yl)phenyl)-3,4,6,7,8,9-hexahydropyrazino[1,2-a]indol-1(2H)-one]
8.1	–	CN1CCc2cc(Nc3nc(-c4cc(F)cc(N5CCn6c(cc7c6CCCC7)C5=O)c4CO)cn(C)c3=O)ccc2C1 [Example 283, 2-(5-Fluoro-2-(hydroxymethyl)-3-(4-methyl-6-(2-methyl-1,2,3,4-tetrahydroisoquinolin-6-ylamino)-5-oxo-4,5-dihydropyrazin-2-yl)phenyl)-3,4,6,7,8,9-hexahydropyrazino[1,2-a]indol-1(2H)-one]
–	6	Cn1cc(-c2cccc(N3CCc4c(sc5c4CCCC5)C3=O)c2CO)nc(Nc2cnn(CCO)c2)c1=O [Example 116, 5-[3-(6-{[1-(2-Hydroxyethyl)-1H-pyrazol-4-yl]amino}-4-methyl-5-oxo-4,5-dihydropyrazin-2-yl)-2-(hydroxymethyl)phenyl)-8-thia-5-azatricyclo[7.4.0.02,7]trideca-1(9),2(7)-dien-6-one]
2.2	–	Cc1cc(Nc2cc(-c3cc(F)cc(N4CCn5c(cc6c5CC(C)(C)C6)C4=O)c3CO)cn(C)c2=O)n[nH]1 [Example 276, 10-[5-Fluoro-2-(hydroxymethyl)-3-{1-methyl-5-[(5-methyl-1H-pyrazol-3-yl)amino]-6-oxo-1,6-dihydropyridin-3-yl}phenyl]-4,4-dimethyl-1,10-diazatricyclo[6.4.0.0^2,6]dodeca-2(6),7-dien-9-one]
–	3200	Cc1c(-c2cc(Nc3cc4n(n3)CCN(C)C4)c(=O)n(C)n2)cccc1N1Cc2c(sc3ccccc23)C1=O [Example 103, 4-{2-Methyl-3-[1-methyl-5-({5-methyl-4H,5H,6H,7H-pyrazolo[1,5-a]pyrazin-2-yl}amino)-6-oxo-1,6-dihydropyridazin-3-yl]phenyl}-7-thia-4-azatricyclo[6.4.0.0^2,6]dodeca-1(8),2(6),9,11-tetraen-5-one]
4.2	–	CN(C)CCOc1ccc(Nc2cc(-c3cc(F)cc(N4CCn5c(cc6c5CCCC6)C4=O)c3CO)cn(C)c2=O)nc1 [Example 297, 2-(3-(5-(5-(2-(Dimethylamino)ethoxy)pyridin-2-ylamino)-1-methyl-6-oxo-1,6-dihydropyridin-3-yl)-5-fluoro-2-(hydroxymethyl)phenyl)-3,4,6,7,8,9-hexahydropyrazino[1,2-a]indol-1(2H)-one]
4	–	CN1CCC(c2ccc(Nc3nc(-c4cc(F)cc(N5CCn6c(cc7c6CCCC7)C5=O)c4CO)cn(C)c3=O)cc2)CC1 [Example 282, 2-(5-Fluoro-2-(hydroxymethyl)-3-(4-methyl-6-(4-(1-methylpiperidin-4-yl)phenylamino)-5-oxo-4,5-dihydropyrazin-2-yl)phenyl)-3,4,6,7,8,9-hexahydropyrazino[1,2-a]indol-1(2H)-one]
–	22.9	Cc1c(-c2cc(Nc3cc4n(n3)CCN(C)C4)c(=O)[nH]n2)cccc1N1CCn2c(cc3ccccc32)C1=O [Example 102]
5.3	–	CN1CC(c2ccc(Nc3nc(-c4cc(F)cc(N5CCc6c(sc7c6CC(C)(C)C7)C5=O)c4CO)cn(C)c3=O)cc2)C1 [Example 298, 10-[5-fluoro-2-(hydroxymethyl)-3-(4-methyl-6-{[4-(1-methylazetidin-3-yl)phenyl]amino}-5-oxopyrazin-2-yl)phenyl]-4,4-dimethyl-7-thia-10-azatricyclo[6.4.0.0^2,6]dodeca-1(8),2(6)-dien-9-one]
4.7	–	CN1CC(c2ccc(Nc3cc(-c4cc(F)cc(N5CCn6c(cc7c6CC(C)(C)C7)C5=O)c4CO)cn(C)c3=O)nc2)C1 [Example 271, 10-[5-Fluoro-2-(hydroxymethyl)-3-(1-methyl-5-{[5-(1-methylazetidin-3-yl)pyridine-2-yl]amino}-6-oxo-1,6-dihydropyridin-3-yl)phenyl]-4,4-dimethyl-1,10-diazatricyclo[6.4.0.0^2,6]dodeca-2(6),7-dien-9-one]
9.9	–	CCn1nc(Nc2cc(-c3cc(F)cc(N4CCn5c(cc6c5CC(C)(C)C6)C4=O)c3CO)cn(C)c2=O)cc1C [Example 302, 10-(3-{5-[(1-Ethyl-5-methyl-1H-pyrazol-3-yl)amino]-1-methyl-6-oxo-1,6-dihydropyridin-3-yl}-5-fluoro-2-(hydroxymethyl)phenyl)-4,4-dimethyl-1,10-diazatricyclo[6.4.0.0^2,6]dodeca-2(6),7-dien-9-one]
16.6	–	CCN1CCN(c2ccc(Nc3cc(-c4cccc(N5CCc6c(cc7n6CCCC7)C5=O)c4CO)cn(C)c3=O)nc2)CC1 [Example 310, 3-{[5-(4-Ethylpiperazin-1-yl)pyridine-2-yl]amino}-5-[2-(hydroxymethyl)-3-{1-oxo-1H,2H,3H,4H,6H,7H,8H,9H-pyrido[3,4-b]indolizin-2-yl}phenyl]-1-methyl-1,2-dihydropyridin-2-one]
7.1	–	CN1CCN(c2ccc(Nc3cc(-c4cccc(N5CCn6c(cc7c6CCCC7)C5=O)c4CO)nn(C)c3=O)nc2)CC1 [Example 307, 2-(2-(Hydroxymethyl)-3-(1-methyl-5-(5-(4-methylpiperazin-1-yl)pyridin-2-ylamino)-6-oxo-1,6-dihydropyridazin-3-yl)phenyl)-3,4,6,7,8,9-hexahydropyrazino[1,2-a]indol-1(2H)-one]
–	2	Cc1c(-c2cc(Nc3cc4n(n3)CCN(C)C4)c(=O)[nH]n2)cccc1N1CCn2c(cc3c2CCCC3)C1=O [Example 101]
5.2	–	CN1CCC(c2ccc(Nc3nc(-c4cc(F)cc(N5CCc6c(sc7c6CCCC7)C5=O)c4CO)cn(C)c3=O)cc2)CC1 [Example 281, 5-[5-Fluoro-2-(hydroxymethyl)-3-(4-methyl-6-{[4-(1-methylpiperidin-4-yl)phenyl]amino}-5-oxo-4,5-dihydropyrazin-2-yl)phenyl]-8-thia-5-azatricyclo[7.4.0.0^2,7]trideca-1(9),2(7)-dien-6-one]
11.6	–	Cn1cc(-c2cc(F)cc(N3CCn4c(cc5c4CC(C)(C)C5)C3=O)c2CO)cc(Nc2ccc3c(n2)CCN(C2COC2)C3)c1=O [Example 292, 10-[5-Fluoro-2-(hydroxymethyl)-3-(1-methyl-5-{[6-(oxetan-3-yl)-5,6,7,8-tetrahydro-1,6-naphthyridin-2-yl]amino}-6-oxo-1,6-dihydropyridin-3-yl)phenyl]-4,4-dimethyl-1,10-diazatricyclo[6.4.0.0^2,6]dodeca-2(6),7-dien-9-one]
1.74	–	CN1CCC[C@@H]1c1ccc(Nc2cc(-c3cc(F)cc(N4CCn5c(cc6c5CC(C)(C)C6)C4=O)c3CO)cn(C)c2=O)nc1 [Example 291, 10-[5-Fluoro-2-(hydroxymethyl)-3-[1-methyl-5-({5-[(2R)-1-methylpyrrolidin-2-yl]pyridine-2-yl}amino)-6-oxo-1,6-dihydropyridin-3-yl]phenyl]-4,4-dimethyl-1,10-diazatricyclo[6.4.0.0^2,6]dodeca-2(6),7-dien-9-one]
2.6	–	CN1CCC(c2ccc(Nc3nc(-c4cc(F)cc(N5CCc6c(sc7c6CC(C)(C)C7)C5=O)c4CO)cn(C)c3=O)cc2)CC1 [Example 278, 10-[5-Fluoro-2-(hydroxymethyl)-3-(4-methyl-6-{[4-(1-methylpiperidin-4-yl)phenyl]amino}-5-oxo-4,5-dihydropyrazin-2-yl)phenyl]-4,4-dimethyl-7-thia-10-azatricyclo[6.4.0.0^2,6]dodeca-1(8),2(6)-dien-9-one]
2.8	–	Cn1cc(-c2cc(F)cc(N3CCn4c(cc5c4CCCC5)C3=O)c2CO)cc(Nc2ccc(C3CCN(C4COC4)CC3)cn2)c1=O [Example 265, 2-(5-Fluoro-2-(hydroxymethyl)-3-(1-methyl-5-(5-(1-(oxetan-3-yl)piperidin-4-yl)pyridin-2-ylamino)-6-oxo-1,6-dihydropyridin-3-yl)phenyl)-3,4,6,7,8,9-hexahydropyrazino[1,2-a]indol-1(2H)-one]
–	6.1	CC(=O)N1CCn2nc(Nc3cc(-c4cccc(N5CCn6c(cc7c6CCCC7)C5=O)c4CO)cn(C)c3=O)cc2C1 [Example 108, 2-(3-(5-(5-acetyl-4,5,6,7-tetrahydropyrazolo[1,5-a]pyrazin-2-ylamino)-1-methyl-6-oxo-1,6-dihydropyridin-3-yl)-2-(hydroxymethyl)phenyl)-3,4,6,7,8,9-hexahydropyrazino[1,2-a]indol-1(2H)-one]
17.1	–	Cn1cc(-c2cccc(N3CCc4c(sc5c4CCCC5)C3=O)c2CO)nc(Nc2ccc(C3CCN(C4COC4)CC3)cc2)c1=O [Example 305, 5-[2-(Hydroxymethyl)-3-[4-methyl-6-({4-[1-(oxetan-3-yl)piperidin-4-yl]phenyl}amino)-5-oxo-4,5-dihydropyrazin-2-yl]phenyl]-8-thia-5-azatricyclo[7.4.0.0^2,7]trideca-1(9),2(7)-dien-6-one]

Reference: US8618107B2 (Gilead Connecticut, Inc., priority 2010, dated 2013)
